Earlier results as cited in patent US20040018260A1, “Novel botanical extract of Tripterygium Wilfordii Hook F” (Novemed Group Limited, priority 2002, published 2004).
“Also recorded” adds a separate entry of the source.

How the values were obtained:
[1] = in vitro and animal experiments; results called inconclusive
[2] = reported
[3] = in vitro and animal experiments; results called inconclusive; remark: listed apart in the source

In the case of `CC(C)[C@]12O[C@H]1[C@@H]1O[C@]13[C@]1(O[C@H]1C[C@H]1C4=C(CC[C@@]13C)C(=O)OC4)[C@@H]2O` [T10, triptolide], the immunosuppressive activity [1] is given as “most abundant and active compound”, the carcinogenic or mutagenic [2] is given as “potently carcinogenic or mutagenic; also recorded: carcinogenic” and the anti-inflammatory activity [3] is given as “most abundant and active compound”.

In the case of `CC(C)[C@]1(O)[C@H](O)[C@@H]2O[C@]23[C@]2(O[C@H]2C[C@H]2C4=C(CC[C@@]23C)C(=O)OC4)[C@@H]1O` [T11, tripriolide], the immunosuppressive activity [1] is given as “little immunosuppressive activity” and the anti-inflammatory activity [3] is given as “highest anti-inflammatory activity”.

For `CC(C)[C@]12O[C@H]1[C@@H]1O[C@@]13[C@@]1(C)CCC4=C(COC4=O)[C@@H]1C[C@@H]1O[C@@]13C2=O` [T7, Triptonide], the immunosuppressive activity [1] is listed as “relatively low activities” and the anti-inflammatory activity [3] is listed as “relatively low activities”.
